# Reference: patent US20110293653A1, “ANTAGONISTS OF MIR-155 FOR THE TREATMENT OF INFLAMMATORY LIVER DISEASE” (UNIVERSITY OF MASSACHUSETTS, priority 2010, published 2011)
# “Also recorded” adds a separate entry of the source. Where a SMILES comes first, the peptide text is derived from it. The star is where a group is joined. Cbz = O=C(OCc1ccccc1)*
# Tested on: miR155
# Experiment: miR155 expression (qPCR) in RAW cells after ethanol and/or LPS stimulation with NF-κB inhibitor
# Assay type: cell-based
# Details: RAW cells pretreated 48 h with ethanol (50 mM) and MG-132 (0.25 μM) or Bay 11-7082 (0.1 uM), LPS 100 ng/mL 2 h
# Description: FIG. 8. […] RAW cells were exposed or not to ethanol (50 mM) and MG-132 (0.25 μM) for 48 hours and were further stimulated with LPS (100 ng/mL) for 2 hours. Expression of miR155 was assayed by qPCR and data were normalized to sno202 control. The fold increase in the expression of miR155 versus nonstimulated cells is shown. Data represent the mean value (s.e.m. as error bars) of at least three independent experiments. Statistically significant differences are shown.
# C. Cell culture and reagents. RAW 264.7 macrophages were purchased from American Type Culture Collection and maintained in Dulbecco's modified medium (Invitrogen Life Technologies, Carlsbad, Calif.) containing 10% FBS (HyClone, South Logan, Utah) at 37° C. in a 5% CO2 atmosphere. […]
# E. RNA analysis. RNA was purified using the RNeasy kit (Qiagen Sciences, Maryland, USA) or mirVana™ miRNA Isolation Kit (Ambion) if miRs were to be analyzed. […] Quantitative RT-PCR analyses for miR-125b, miR-146aa, miR155 and sno202, used as normalizing control, were performed using TaqMan miRNA assays with reagents, primers, and probes obtained from Ambion. […] Real-time quantitative polymerase chain reaction was performed using the iCycler (Bio-Rad Laboratories Inc., Hercules, Calif.), as described previously (Romics et al., supra). […] Relative expression was calculated using the comparative threshold cycle (Ct) method. […]
row,SMILES,miR155 levels after ethanol and/or LPS stimulation
1,Cc1ccc(S(=O)(=O)/C=C/C#N)cc1 [Bay 11-7082],decrease
2,CC(C)C[C@@H](C=O)NC(=O)[C@H](CC(C)C)NC(=O)[C@H](CC(C)C)NC(=O)OCc1ccccc1 [MG-132] (Cbz-Leu-Leu-Leu-aldehyde),decrease; also recorded: prevented miR155 increase
